Values quoted from earlier work in patent US20100092556A1, “ALFUZOSIN FORMULATIONS, METHODS OF MAKING, AND METHODS OF USE” (priority 2006, published 2010).
Where a name gives a salt, the structure may show the parent alone.

Assays:
[1] = oral administration

Row | administered dose excreted unchanged in the urine [1] [%] | solubility in alcohol | solubility in dichloromethane | solubility in water | SMILES
1 | 11 | – | – | – | COc1cc2nc(N(C)CCCNC(=O)C3CCCO3)nc(N)c2cc1OC (racemic) [alfuzosin, (R,S)—N-[3-[(4-amino-6,7-dimethoxy-2-quinazolinyl)methylamino]propyl]tetrahydro-2-furancarboxamide]
2 | – | sparingly soluble | practically insoluble | freely soluble | COc1cc2nc(N(C)CCCNC(=O)C3CCCO3)nc(N)c2cc1OC (racemic) [Alfuzosin hydrochloride, (R,S)—N-[3-[(4-amino-6,7-dimethoxy-2-quinazolinyl)methylamino]propyl]tetrahydro-2-furancarboxamide hydrochloride]
